The record followed here is patent US5688821A, “Unsaturated fatty acyl derivatives of 2-aminothiazoleacetic acid and their salts as inhibitors of phospholipase A2 derived from human sources” (American Home Products Corporation, priority 1996, dated 1997).

One test has as its target T1, Human Platelet PLA2 (Homo sapiens, UniProt P14555).
T1 construct: semi-purified human platelet acid extract PLA2; from tissue; host or cells: human platelets (semi-purified acid extract)
T1 sequence (P14555 21-144): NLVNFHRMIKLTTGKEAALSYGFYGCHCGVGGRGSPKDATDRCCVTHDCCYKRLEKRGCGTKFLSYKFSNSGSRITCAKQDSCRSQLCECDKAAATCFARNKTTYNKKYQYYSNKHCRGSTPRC
The experiment in a line: Inhibition of PLA2 derived from human platelets (HP), arachidonic acid release from 3H-AA E. coli substrate. It counts as biochemical. The note with it: for inhibition at 50 µM: Drug Concentration 50 μM; for inhibition at 10 µM / % Inhibition HP: Drug Concentration 10 μM, Example 8: average of two runs; for % Inhibition HP: 10 µM. As to the method: (§1) The compounds of the invention are tested in an in vitro isolated phospholipase A2 assay to determine the ability of the test compounds to inhibit the release of arachidonic acid from an arachidonic acid-containing substrate by the action of phospholipase A enzyme from two human sources.
(§2) 1. INHIBITION OF PLA2 DERIVED FROM HUMAN PLATELETS AND HUMAN SYNOVIAL FLUID
(§3) This assay is carried out as follows:
(§4) Into a 15 mL polypropylene tube are added the following: […]
(§5) *pre-incubate at room temperature 30 min prior to substrate addition.
(§6) ^1. Prepared by adding 2 mL deionized and distilled water to 2 mL ^3 H-arachidonate labeled E. coli (lower count), to which is added 1 mL of ^3 H-arachidonate labeled E. coli (higher count) to yield a total of […] substrate (containing 1000 nmoles phospholipid, PL).
(§7) ^2 Stock 0.1M CaCl2 required for enzyme activity.
(§8) ^3 Stock 0.5M Trisma-Base. Stock 0.5M Trisma-HCl. Adjust pH to 7.5 (optimum for enzyme).
(§9) ^4 Deionized and distilled water.
(§10) ^5 Stock 10 mM prepared in dimethyl sulfoxide. Make 1:2 dilution with dimethyl sulfoxide and add 1 μL to 100 μL assay tube.
^6 Two human PLA2 enzymes are used:
(a) semi-purified human platelet acid extract PLA2 (in 10 mM sodium acetate buffer, pH 4.5). Remove protein precipitate by centrifugation at about 2200 rpm for 10 minutes. […]
(§11) Incubate the […] reaction mixture for 10 minutes at 37° C. in a shaking water bath. The reaction is terminated by the addition of 2 mL tetrahydrofuran, followed by vortexing. NH2 columns ([…]--Analytichem International) are conditioned with 0.5 mL tetrahydrofuran followed by 0.5 mL tetrahydrofuran/water (2 mL:0.1 mL, v/v).
(§12) The sample is loaded onto the columns and slowly dram through them. The hydrolyzed arachidonic acid retained in the columns is eluted therefrom with 1 mL tetrahydrofuran/glacial acetic acid (2%). The arachidonic acid is transferred to scintillation vials and quantitated by β-counting analysis. A "total counts" sample is prepared by pipetting 25 μl, ^3 H-arachidonate E. coli directly into a scintillation vial to which is added 1 mL tetrahydrofuran. 10 mL aquasol (scintillation cocktail) is added to all samples.

For the next test, the target named is T2, Human Synovial PLA2 (Homo sapiens, UniProt P14555).
T2 construct: Purified human synovial fluid; from tissue; host or cells: human synovial fluid (purified)
T2 sequence (P14555 21-144): T1 sequence (P14555 21-144)
In words: Inhibition of PLA2 derived from human synovial fluid (HSF), arachidonic acid release from 3H-AA E. coli substrate. It counts as biochemical. To be noted: for inhibition at 50 µM: Drug Concentration 50 μM; for inhibition at 10 µM / % Inhibition HSF: Drug Concentration 10 μM, Example 8: average of two runs; for % Inhibition HSF: 10 µM. On the procedure:
as §1, §2, §3, §4, §5, §6, §7, §8, §9, §10
^6 Two human PLA2 enzymes are used: […]
(b) Purified human synovial fluid.
as §11, §12

For test [1], the system named is TPA-induced ear edema in mouse ears. In words: TPA-induced dermal inflammation in mouse ears. The test is classed as in vivo, mouse (female Swiss Webster). To be noted: Topical, 30 min after TPA, measured 4 h after TPA, * p ≤0.05. On the procedure:
2. TPA-induced dermal inflammation in mouse ears
Female Swiss Webster mice (Buckshire; 8 weeks old) were divided into groups of six. Tetradecanoylphorbol acetate CrPA) was dissolved in acetone at concentrations of 50 mg/ml and 200 μg/ml, respectively. Each mouse received 4 μg/ear of TPA on the right ear. These suboptimal doses of phlogistics were applied by an automatic pipette in 10 μl volumes to both the inner and outer surfaces of the ear. The left ear (control) received acetone or vehicle. […] Drags were given 30 min. after treatment (+30 min) with TPA. Edema measurements were taken with an Oditest calipers. The thickness of the right and left ears were usually measured in traits of 0.01 mm 4 h after TPA application. Ear edema was calculated by subtracting the thickness of the left ear (vehicle control) from right ear (treated ear).

Test [2] concerns paw edema induced by the exogenous administration of PLA2. The experiment in a line: Murine paw edema assay (edema induced by exogenous PLA2). The note with it: for % change paw edema: 30 mg/kg i.p., * p ≤0.05; for % change paw edema (in words): dose and time not given. The test is classed as in vivo, mouse (male CD-1).
Where [3] appears, read: test compounds, value in parentheses, Table 1, read-out: (IC50) HP.
The mark [4] stands for this setting: test compounds, value in parentheses, Table 1, read-out: (IC50) HSF.

Where a name gives a salt, the structure may show the parent alone. Read-outs that look alike come from different tables or passages of the source.

The IC50 is the point on the concentration scale where inhibition reaches its midpoint. Turning to `CCCCC/C=C\C/C=C\C/C=C\C/C=C\CCCC(=O)O` [Arachidonic Acid, reference compound], the IC50 on Human Platelet PLA2 (standard drugs, read-out: IC50 Human Platelet PLA2 (standard drugs)) worked out at 8.6 µM; at Human Synovial PLA2 (standard drugs, read-out: IC50 Human Synovial PLA2 (standard drugs)), 3.2 µM.

As usually defined, the inhibition is the drop in the measured response relative to a control, in per cent. A low value points to a response near the control. As to `CCCCCCCC/C=C\CCCCCCCC(=O)Nc1nc(CC(=O)O)cs1` [Example 1, 2[((Z)-1-Oxo-9-octadecenyl)amino]-4-thiazoleacetic acid], the inhibition at 50 µM at Human Platelet PLA2 was determined as 57.5%; against Human Synovial PLA2, 96%. Moreover, the IC50 was 27.9 µM on Human Platelet PLA2 (setting [3]) and 1.7 µM at Human Synovial PLA2 (setting [4]).

On to `CCCCCCCC/C=C\CCCCCCCC(=O)Nc1nc(CC(=O)O)cs1` [Example 2, 2-[((Z)-1-Oxo-9-octadecenyl)amino]-4-thizaoleacetic acid, tromethamine (2-amino-2-hydroxymethyl)-1,3-propanediol) salt], for which the values for the inhibition at 10 µM against Human Platelet PLA2 and against Human Synovial PLA2 were 36% and 25.9%, respectively.

As for `CCCCCCCC/C=C/CCCCCCCC(=O)Nc1nc(CC(=O)O)cs1` [Example 3, 2-[((E)-1-Oxo-9-octadecenyl)amino]-4-thiazoleacetic acid], the inhibition at 50 µM against Human Platelet PLA2 was 70%; at Human Synovial PLA2, 81.7%. The results for the concentration for half-maximal inhibition (IC50) at Human Platelet PLA2 (setting [3]) and on Human Synovial PLA2 (setting [4]) were 25.7 µM and 2.1 µM, respectively. In test [1] (100 mg/ear (so in the source)), the “% Change Edema” value is reported as -20%. Moreover, the “% change paw edema” value in test [2] (10 min after PLA2) was -33%; in test [2] (30 min after PLA2), -43%.

For `CCCCCCCCC#CCCCCCCCC(=O)Nc1nc(CC(=O)O)cs1` [Example 4, 2-[(1-Oxo-9-octadecynyl)amino]-4-thiazoleacetic acid], the “% Inhibition HP” value at Human Platelet PLA2 was 8.9%. In addition, at Human Synovial PLA2, the “% Inhibition HSF” value is 42.5%.

With `CCCCCCCCC#CCCCCCCCC(=O)Nc1nc(CC(=O)O)cs1` [Example 5, 2-[(1-Oxo-9-octadecynyl)amino]-4-thiazoleacetic acid, tromethamine salt], the “% Inhibition HP” value on Human Platelet PLA2 is 26%. Moreover, at Human Synovial PLA2, the “% Inhibition HSF” value is recorded as 66%.

As to `CCCCC/C=C/C/C=C/CCCCCCCC(=O)Nc1nc(CC(=O)O)cs1` [Example 6], the results for the inhibition at 10 µM against Human Platelet PLA2 and at Human Synovial PLA2 were 74.6% and 84.8%, respectively.

Take `CC/C=C\C/C=C\C/C=C\CCCCCCCC(=O)Nc1nc(CC(=O)O)cs1` [Example 7, 2-[((Z,Z,Z)-1-Oxo-9,12,15-octadecatrienyl)amino]-4-thiazole-acetic acid]: the inhibition at 10 µM stood at 0.5% against Human Platelet PLA2 and 38.5% against Human Synovial PLA2.

As to `CCCC/C=C\CCCCCCCC(=O)Nc1nc(CC(=O)O)cs1` [Example 8, 2-[((Z)-1-Oxo-9-tetradecenyl)amino]-4-thiazoleacetic Acid], 10 µM produced 65.6% inhibition against Human Platelet PLA2. The “% Inhibition HSF” value on Human Synovial PLA2 amounted to 2%.

Regarding `CCCC/C=C\CCCCCCCC(=O)Nc1nc(CC(=O)O)cs1` [Example 9, 2[((Z)-1-Oxo-9-tetradecenyl)amino]-4-thiazoleacetic acid, tromethamine salt], the “% Inhibition HP” value at Human Platelet PLA2 turned out to be 74%. The “% Inhibition HSF” value on Human Synovial PLA2 came to 26.9%.

On to `CCCCC/C=C\C/C=C\CCCCCCCCCC(=O)Nc1nc(CC(=O)O)cs1` [Example 10, 2[((Z,Z)-1-Oxo-11,14-eicosadienyl)amino]-4-thiazoleacetic acid], for which the inhibition at 50 µM amounted to 82.7% at Human Platelet PLA2 and 86.3% at Human Synovial PLA2.

In the case of `CC1=C(CC/C(C)=C/CC/C(C)=C/CCC2=CC(=O)OC2O)C(C)(C)CCC1` (centres unmarked) [Luffariellolide, reference compound], the “% change paw edema (in words)” value in test [2] is recorded as “Inactive”.

For the molecule `c1ccc2nc(COc3cccc4ccccc34)ccc2c1` [WY-47288, reference compound], the “% Change Edema” value in test [1] (1 mg/ear) is reported as -40%. Besides, the “% change paw edema (in words)” value in test [2] is on record as “Inactive”.
